Measured values as given in the Kinase Knowledgebase extract (Sharma et al. 2016).

Legend:
MAPK14 = MAPK14 (UniProt Q16539); assay: Inhibition of MAPK14 Kinase Activity
CDK2 = CDK2 (UniProt P24941); assay: Enzyme Assay

MAPK14, sequence (Q16539 whole entry, looked up): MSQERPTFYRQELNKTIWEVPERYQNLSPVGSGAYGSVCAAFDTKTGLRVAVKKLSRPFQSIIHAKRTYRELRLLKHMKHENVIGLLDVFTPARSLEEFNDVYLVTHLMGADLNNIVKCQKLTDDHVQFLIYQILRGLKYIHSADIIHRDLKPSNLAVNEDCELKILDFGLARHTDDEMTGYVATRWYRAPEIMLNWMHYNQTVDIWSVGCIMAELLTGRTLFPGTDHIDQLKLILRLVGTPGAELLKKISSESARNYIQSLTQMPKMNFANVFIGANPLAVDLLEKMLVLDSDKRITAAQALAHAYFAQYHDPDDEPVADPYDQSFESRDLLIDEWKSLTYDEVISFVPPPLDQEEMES

Row | Compound | IC50 (MAPK14) [nM] | IC50 (CDK2) [nM]
1 | O=C1Nc2nc(Cl)ccc2C1=Cc1cc(Br)c(O)c(Br)c1 | < 1000 | 
2 | NS(=O)(=O)c1ccc(-c2ccc(C=C3C(=O)Nc4ncc(-c5ccsc5)cc43)o2)cc1 |  | < 1000
3 | CCc1cnc2c(c1)C(=Cc1cc(Br)c(O)c(Br)c1)C(=O)N2 | < 1000 | < 1000
4 | O=C1Nc2ncc(Br)cc2C1=Cc1cc(Br)c(O)c(Br)c1 | < 1000 | < 1000
5 | O=C1Nc2ncc(Br)cc2C1=Cc1cc([N+](=O)[O-])c(O)c([N+](=O)[O-])c1 |  | < 1000
6 | COc1ccccc1-c1cc(C=C2C(=O)Nc3ncc(Br)cc32)cc(Br)c1O | < 1000 | 
7 | NC(=O)c1cncc(-c2cnc3c(c2)C(=Cc2cc(Br)c(O)c(Br)c2)C(=O)N3)c1 | 1000 to 10000 | 
8 | C=Cc1cnc2c(c1)C(=Cc1cc(Br)c(O)c(Br)c1)C(=O)N2 |  | < 1000
